Reference: patent US7951824B2, “4-aryl-pyridine-2-carboxyamide derivatives” (Hoffman-La Roche Inc., priority 2006, dated 2011)

molecular target: T1, human mGlu 5a receptor (Homo sapiens, UniProt P41594); test: [3H]MPEP competition binding on membranes of EBNA cells transfected with human mGlu 5a receptor; conditions: competition with [3H]MPEP (2 nM), 1 h at 4° C., EBNA cell membranes
T1 construct: expressed in transfected cells; host or cells: EBNA cells (transient transfection), membrane homogenates
T1 sequence (P41594 21-1180 isoform P41594-2 limits assumed): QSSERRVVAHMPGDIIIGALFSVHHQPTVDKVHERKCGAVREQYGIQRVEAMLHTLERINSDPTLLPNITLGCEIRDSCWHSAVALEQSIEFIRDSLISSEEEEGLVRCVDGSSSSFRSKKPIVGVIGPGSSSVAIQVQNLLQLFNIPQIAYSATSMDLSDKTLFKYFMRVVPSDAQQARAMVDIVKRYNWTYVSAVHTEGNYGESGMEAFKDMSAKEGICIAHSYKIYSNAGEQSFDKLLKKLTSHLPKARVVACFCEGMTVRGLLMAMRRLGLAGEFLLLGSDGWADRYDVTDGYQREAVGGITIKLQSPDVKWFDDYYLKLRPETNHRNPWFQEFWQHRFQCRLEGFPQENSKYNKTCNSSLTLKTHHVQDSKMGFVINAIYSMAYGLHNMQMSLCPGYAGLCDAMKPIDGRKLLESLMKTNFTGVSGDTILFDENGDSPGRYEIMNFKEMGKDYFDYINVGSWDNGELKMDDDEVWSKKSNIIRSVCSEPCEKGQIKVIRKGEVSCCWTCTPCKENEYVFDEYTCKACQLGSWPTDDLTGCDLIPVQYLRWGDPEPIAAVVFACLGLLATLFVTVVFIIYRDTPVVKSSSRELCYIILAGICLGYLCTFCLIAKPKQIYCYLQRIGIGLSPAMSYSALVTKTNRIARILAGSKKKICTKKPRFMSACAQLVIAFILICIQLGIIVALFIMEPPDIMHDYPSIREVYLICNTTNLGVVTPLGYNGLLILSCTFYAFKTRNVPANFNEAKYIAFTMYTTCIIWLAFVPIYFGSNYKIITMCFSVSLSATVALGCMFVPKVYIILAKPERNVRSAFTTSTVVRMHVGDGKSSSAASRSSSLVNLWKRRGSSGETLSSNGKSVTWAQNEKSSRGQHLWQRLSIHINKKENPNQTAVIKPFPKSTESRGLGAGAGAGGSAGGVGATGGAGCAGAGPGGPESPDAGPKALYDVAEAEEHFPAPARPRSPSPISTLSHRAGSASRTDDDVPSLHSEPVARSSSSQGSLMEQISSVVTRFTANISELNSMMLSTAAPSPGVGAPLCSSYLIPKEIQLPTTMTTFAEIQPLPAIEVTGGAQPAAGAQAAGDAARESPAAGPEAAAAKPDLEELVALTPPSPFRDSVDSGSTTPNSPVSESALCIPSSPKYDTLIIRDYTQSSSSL
Experimental: The pharmacological activity of the compounds was tested using the following method: For binding experiments, cDNA encoding human mGlu 5a receptor was transiently transfected into EBNA cells using a procedure described by Schlaeger and Christensen [Cytotechnology 15:1-13 (1998)]. Cell membrane homogenates were stored at −80° C. until the day of assay where upon they were thawed and resuspended and polytronised in 15 mM Tris-HCl, 120 mM NaCl, 100 mM KCl, 25 mM CaCl2, 25 mM MgCl2 binding buffer at pH 7.4 to a final assay concentration of 20 μg protein/well.
Saturation isotherms were determined by addition of twelve [^3H] MPEP concentrations (0.04-100 nM) to these membranes (in a total volume of 200 μd) for 1 h at 4° C. Competition experiments were performed with a fixed concentration of [^3H]MPEP (2 nM) and IC50 values of test compounds evaluated using 11 concentrations (0.3-10,000 nM). Incubations were performed for 1 h at 4° C.
At the end of the incubation, membranes were filtered onto unifilter (96-well white microplate with bonded GF/C filter preincubated 1 h in 0.1% PEI in wash buffer, Packard Bio-Science, Meriden, Conn.) with a Filtermate 96 harvester (Packard BioScience) and washed 3 times with cold 50 mM Tris-HCl, pH 7.4 buffer. Nonspecific binding was measured in the presence of 10 μM MPEP. The radioactivity on the filter was counted (3 min) on a Packard Top-count microplate scintillation counter with quenching correction after addition of 45 μl of microscint 40 (Canberra Packard S. A., Zürich, Switzerland) and shaking for 20 min.
For binding experiments the Ki values of the compounds tested are given. The Ki value is defined by the following formula: KiIC50/[1+L/Kd] in which the IC50 values are those concentrations of the compounds tested which cause 50% inhibition of the competing radioligand ([^3H]MPEP). L is the concentration of radioligand used in the binding experiment and the Kd value of the radioligand is empirically determined for each batch of membranes prepared.

Row | Structure (SMILES) | Ki
1 | Cc1cc(-c2ccc(F)cc2)cc(C(=O)Nc2nc(C)cs2)n1 [Example 27, 4-(4-Fluoro-phenyl)-6-methyl-pyridine-2-carboxylic acid (4-methyl-thiazol-2-yl)-amide] | 55 nM
2 | Cc1nc(C(=O)Nc2csc(C)n2)cc(-c2cc(F)cc(F)c2)n1 [Example 34, 6-(3,5-Difluoro-phenyl)-2-methyl-pyrimidine-4-carboxylic acid (2-methyl-thiazol-4-yl)-amide] | 36 nM
3 | Cc1csc(NC(=O)c2cc(-c3cc(F)cc(F)c3)nc(C)n2)n1 [Example 33, 6-(3,5-Difluoro-phenyl)-2-methyl-pyrimidine-4-carboxylic acid (4-methyl-thiazol-2-yl)-amide] | 14 nM
4 | Cc1cc(-c2ccc(F)cc2)cc(C(=O)Nc2ccnc(C)n2)n1 [Example 32, 4-(4-Fluoro-phenyl)-6-methyl-pyridine-2-carboxylic acid (2-methyl-pyrimidin-4-yl)-amide] | 501 nM
5 | Cc1cc(-c2ccc(F)cc2)cc(C(=O)Nc2ccc(F)cn2)n1 [Example 30, 4-(4-Fluoro-phenyl)-6-methyl-pyridine-2-carboxylic acid (5-fluoro-pyridin-2-yl)-amide] | 280 nM
6 | Cc1cc(NC(=O)c2cc(-c3ccc(F)cc3)cc(C)n2)ccn1 [Example 28, 4-(4-Fluoro-phenyl)-6-methyl-pyridine-2-carboxylic acid (2-methyl-pyridin-4-yl)-amide] | 411 nM

Now from value to compound:

Row | Ki | Structure (SMILES)
7 | 37 nM | Cc1cc(-c2cncc(F)c2)cc(C(=O)Nc2ccnc(Cl)c2)n1 [Example 67, 5-Fluoro-6′-methyl-[3,4′]bipyridinyl-2′-carboxylic acid (2-chloro-pyridin-4-yl)-amide]
8 | 127 nM | Cc1cc(-c2cc(C)nn2C)c(C)c(C(=O)Nc2csc(C)n2)n1 [Example 109, 4-(2,5-Dimethyl-2H-pyrazol-3-yl)-3,6-dimethyl-pyridine-2-carboxylic acid (2-methyl-thiazol-4-yl)-amide]
9 | 20 nM | Cc1cccc(NC(=O)c2cc(-c3cccnc3)cc(C)n2)n1 [Example 87, 6′-Methyl-[3,4′]bipyridinyl-2′-carboxylic acid (6-methyl-pyridin-2-yl)-amide]
10 | 30 nM | Cc1cc(-c2cc(F)cc(F)c2)cc(C(=O)Nc2ccnc(C#N)c2)n1 [Example 169, 4-(3,5-Difluorophenyl)-6-methyl-pyridine-2-carboxylic acid (2-cyano-pyridin-4-yl)-amide]
11 | 290 nM | Cc1cc(-c2cc(C)nc(C(=O)Nc3nc(C#N)cs3)c2)ccn1 [Example 185, 6,2′-Dimethyl-[4,4′]bipyridinyl-2-carboxylic acid (4-cyano-thiazol-2-yl)-amide]
12 | 181 nM | Cc1cc(-c2cc(F)cc(F)c2)nc(C(=O)Nc2ccn(C)n2)n1 [Example 198, 4-(3,5-Difluoro-phenyl)-6-methyl-pyrimidine-2-carboxylic acid (1-methyl-1H-pyrazol-3-yl)-amide]
13 | 576 nM | CCOC(=O)Cn1ccc(NC(=O)c2cc(-c3cc(F)cc(F)c3)cc(C)n2)n1 [Example 170, (3-{[4-(3,5-Difluorophenyl)-6-methyl-pyridine-2-carbonyl]-amino}-pyrazol-1-yl)-acetic acid ethyl ester]
14 | 221 nM | Cc1cc(-c2cc(F)cc(F)c2)nc(C(=O)Nc2ccnc(Cl)c2)n1 [Example 194, 4-(3,5-Difluoro-phenyl)-6-methyl-pyrimidine-2-carboxylic acid (2-chloro-pyridin-4-yl)-amide]
15 | 39 nM | Cc1cc(-c2cncc(F)c2)cc(C(=O)Nc2nc(C(F)F)cs2)n1 [Example 174, 5-Fluoro-6′-methyl-[3,4′]bipyridinyl-2′-carboxylic acid (4-difluoromethyl-thiazol-2-yl)-amide]
16 | 33 nM | Cc1cc(-c2cncc(F)c2)cc(C(=O)Nc2ccc(Cl)cn2)n1 [Example 173, 5-Fluoro-6′-methyl-[3,4′]bipyridinyl-2′-carboxylic acid (5-chloro-pyridin-2-yl)-amide]
17 | 213 nM | COc1cncc(-c2cc(C)nc(C(=O)Nc3ccn(C)n3)c2)c1 [Example 50, 5-Methoxy-6′-methyl-[3,4′]bipyridinyl-2′-carboxylic acid (1-methyl-1H-pyrazol-3-yl)-amide]
18 | 14 nM | Cc1cc(-c2cc(F)cc(F)c2)cc(C(=O)Nc2nc(C)c(F)s2)n1 [Example 199, 4-(3,5-Difluoro-phenyl)-6-methyl-pyridine-2-carboxylic acid (5-fluoro-4-methyl-thiazol-2-yl)-amide]
19 | 182 nM | Cc1cc(NC(=O)c2cc(-c3ccnc(C#N)c3)cc(C)n2)ccn1 [Example 142, 2′-Cyano-6-methyl-[4,4′]bipyridinyl-2-carboxylic acid (2-methyl-pyridin-4-yl)-amide]
20 | 110 nM | Cc1cc(-c2cc(F)cc(F)c2)nc(C(=O)Nc2nc(C)cs2)n1 [Example 192, 4-(3,5-Difluoro-phenyl)-6-methyl-pyrimidine-2-carboxylic acid (4-methyl-thiazol-2-yl)-amide]
21 | 8 nM | Cc1cc(-c2cc(F)cc(F)c2)cc(C(=O)Nc2ccnc(C)n2)n1 [Example 64, 4-(3,5-Difluorophenyl)-6-methyl-pyridine-2-carboxylic acid (2-methyl-pyrimidin-4-yl)-amide]
22 | 59 nM | Cc1cc(-c2ccnc(Cl)c2)cc(C(=O)Nc2ccn(C)n2)n1 [Example 153, 2′-Chloro-6-methyl-[4,4′]bipyridinyl-2-carboxylic acid (1-methyl-1H-pyrazol-3-yl)-amide]
23 | 196 nM | Cc1cc(-c2cncc(C(F)(F)F)c2)cc(C(=O)Nc2nc(C)cs2)n1 [Example 131, 6′-Methyl-5-trifluoromethyl-[3,4′]bipyridinyl-2′-carboxylic acid (4-methyl-thiazol-2-yl)-amide]

same assay, conditions: competition with [3H]MPEP (2 nM), 1 h at 4° C., EBNA cell membranes, head prints no unit

Row | Structure (SMILES) | Ki
24 | Cc1cc(-c2ccccc2Cl)cc(C(=O)Nc2nc(C)cs2)n1 [Example 14, 4-(2-Chloro-phenyl)-6-methyl-pyridine-2-carboxylic acid (4-methyl-thiazol-2-yl)-amide] | 4 nM
25 | Cc1cc(-c2cccc(F)c2)cc(C(=O)Nc2nc(C)cs2)n1 [Example 1, 4-(3-Fluoro-phenyl)-6-methyl-pyridine-2-carboxylic acid (4-methyl-thiazol-2-yl)-amide] | 3 nM
26 | Cc1cc(-c2cncnc2)cc(C(=O)Nc2nc(C)cs2)n1 [Example 18, 6-Methyl-4-pyrimidin-5-yl-pyridine-2-carboxylic acid (4-methyl-thiazol-2-yl)-amide] | 124 nM
27 | Cc1cc(-c2cncc(F)c2)cc(C(=O)Nc2nc(C)cs2)n1 [Example 19, 5-Fluoro-6′-methyl-[3,4′]bipyridinyl-2′-carboxylic acid (4-methyl-thiazol-2-yl)-amide] | 25 nM
28 | Cc1cc(-c2cccc(C#N)c2)cc(C(=O)Nc2nc(C)cs2)n1 [Example 3, 4-(3-Cyano-phenyl)-6-methyl-pyridine-2-carboxylic acid (4-methyl-thiazol-2-yl)-amide] | 11 nM
29 | COc1ccccc1-c1cc(C)nc(C(=O)Nc2nc(C)cs2)c1 [Example 13, 4-(2-Methoxy-phenyl)-6-methyl-pyridine-2-carboxylic acid (4-methyl-thiazol-2-yl)-amide] | 25 nM
30 | Cc1cc(-c2ccc(Cl)nc2)cc(C(=O)Nc2nc(C)cs2)n1 [Example 4, 6-Chloro-6′-methyl-[3,4′]bipyridinyl-2′-carboxylic add (4-methyl-thiazol-2-yl)-amide] | 244 nM
31 | Cc1cc(-c2ccc(F)c(F)c2)cc(C(=O)Nc2nc(C)cs2)n1 [Example 10, 4-(3,4-Difluoro-phenyl)-6-methyl-pyridine-2-carboxylic acid (4-methyl-thiazol-2-yl)-amide] | 23 nM
32 | Cc1cc(-c2cc(Cl)cc(Cl)c2)cc(C(=O)Nc2nc(C)cs2)n1 [Example 17, 4-(3,5-Dichloro-phenyl)-6-methyl-pyridine-2-carboxylic acid (4-methyl-thiazol-2-yl)-amide] | 2 nM
33 | Cc1cc(-c2cc(F)c(F)c(F)c2)cc(C(=O)Nc2nc(C)cs2)n1 [Example 11, 6-Methyl-4-(3,4,5-trifluoro-phenyl)-pyridine-2-carboxylic acid (4-methyl-thiazol-2-yl)-amide] | 10 nM
34 | COc1ccc(-c2cc(C)nc(C(=O)Nc3nc(C)cs3)c2)cc1 [Example 9, 4-(4-Methoxy-phenyl)-6-methyl-pyridine-2-carboxylic acid (4-methyl-thiazol-2-yl)-amide] | 1200 nM
35 | Cc1cc(-c2cccc(CO)c2)cc(C(=O)Nc2nc(C)cs2)n1 [Example 15, 4-(3-Hydroxymethyl-phenyl)-6-methyl-pyridine-2-carboxylic acid (4-methyl-thiazol-2-yl)-amide] | 17 nM
